Measurements taken from patent publication US12459939B2 (SHANGHAI RINGENE BIOPHARMA CO., LTD., priority 2019, dated 2025).

Legend:
[1] = biological target: T1, BRD4-BD2 (Homo sapiens, UniProt O60885); test: BRD4 AlphaScreen determination (BD2); format: binding; conditions: AlphaScreen, protein binding inhibition; read-out: BRD4-BD2 IC50
T1 construct: purchased ReactionBiologyCorp; (RBC)
Method: (§1) (1) 1× Assay buffer was prepared according to the kit requirements of ReactionBiologyCorp. (RBC). (2) Compound concentration gradient preparation: the test compounds were tested at final concentrations starting at 10 μM, with 10 concentrations at 3-fold dilution and single well test was set for each concentration. The positive control compound(+)-JQ-1 was tested at final concentrations starting at 1 μM, with 10 concentrations at 3-fold dilution, and duplicated well test was set for each concentration. The solution was gradient diluted to the corresponding 1000-fold final concentration in a 384-well Source plate, and then 20 nL of the solution was transferred to the 384-well reaction plate with Echo550 to be measured. 20 nL of 100% DMSO was transferred to the Max well, and the highest concentration of the positive compounds were transferred to the Min wells. […] (6) 5 μL of 4× peptide solution was added to each well of the reaction plate, centrifuged at 1000 rpm for 1 min. (7) 10 μL of the assay solution was added, centrifuged at 1000 rpm for 60 seconds, the solution was mixed with gentle shaking, and incubated at room temperature for 60 minutes. (8) Reading with EnVision. (9) The IC50 values of the compounds for protein binding inhibition was obtained by fitting the dose-effect curve with the analytical software GraphPad Prism 5. (See Table 1 for specific values)

[2] = test system: MV4-11 cells; test: Inhibition of proliferation of MV4-11 cells (CellTiter-Glo); format: cell-based; conditions: Homo sapiens, 72 h
Method: Specific experimental steps: 1) Day 0: 96 inoculated cells were digested with trypsin and suspended in cell culture medium, the cell density was detected by an automatic cell counter and the cells were diluted with the culture medium to a suitable density, 100 μL of cell suspension was added to the 96-well plate, and the cell-free medium was used as a control well, and the wells were incubated in a 37° C., 5% CO2 cell incubator overnight; 2) Day 1: A total of 8 concentrations of the compound to be tested in the drug-treated cells were tested at 3-fold dilution, 10 μM was the starting assay concentration of the compound to be tested. Specific steps: 200× compound mother liquor was prepared, the compound was diluted with culture medium to a final concentration of […], that is, 3 μL of 200× compound was added to 197 μL of culture medium, 50 μL diluted compound was added to each well of the 96-well plate, and placed at 37° C., 5% CO2 cell culture incubator for 72 h; 3) Day 4: Cell viability detection: 96-well cell plate was first equilibrated to room temperature, 40 μL of CellTiter-Glo® reagent was added to each well, mixed on a shaker for 2 minutes to fully lyse the cells, incubated at room temperature for 10 minutes to stabilize the luminescence signal, and the luminescence value was read by the Envision microplate reader; 4) data processing was performed by GraphPad Prism 5.0 software to analyze the data, and nonlinear S-curve regression was used to fit the data to obtain a dose-effect curve, and from which the ICso value was calculated. Inhibition rate %=(DMSO treated cell wells−compound treated cell wells)/(DMSO treated cell wells−cell free medium wells)×100. The ICso value was obtained by the four-parameter regression method using the random software in the microplate reader. (See Table 2 for specific values)

[3] = biological target: T2, BRD4-BD1 (Homo sapiens, UniProt O60885); test: BRD4 AlphaScreen determination (BD1); format: binding; conditions: AlphaScreen, protein binding inhibition; read-out: BRD4-BD1 IC50
T2 construct: purchased ReactionBiologyCorp; (RBC)
Method: as §1

Structure (SMILES)	IC50 [1]	IC50 [2]	IC50 [3]
CCNC(=O)c1cc2c(=O)n(C)cc(-c3cc(S(C)(=O)=O)cc4c3OC(C)(C)C(=O)N4C)c2[nH]1 [Embodiment 2, N-ethyl-5-methyl-4-oxo-7-(2,2,4-trimethyl-6-(methylsulfonyl)-3-oxo-3,4-dihydro-2H-benzo[b][1,4]oxazin-8-yl)-4,5-dihydro-1H-pyrrolo[3,2-c]pyridine-2-amide]	1.2 nM	64 nM	36 nM
Cc1cc(F)cc(C)c1Oc1ccc(C(C)(C)O)cc1-c1cn(C)c(=O)c2cc(C(=O)NCCCC#Cc3cccc4c3CN(C3CCC(=O)NC3=O)C4=O)[nH]c12 (centres unmarked) [Embodiment 3, N-(5-(2-(2,6-dioxopiperidin-3-yl)-1-oxoisoindolin-4-yl)pent-4-yn-1-yl)-7-(2-(4-fluoro-2,6-dimethylphenoxy)-5-(2-hydroxyprop-2-yl)phenyl)-5-methyl-4-oxo-4,5-dihydro-1H-pyrrolo[3,2-c]pyridine-2-amide]		< 1.5 nM	
Cc1cc(F)cc(C)c1Oc1ccc(C(C)(C)O)cc1-c1cn(C)c(=O)c2cc(C(=O)NCCCCCc3cccc4c3CN(C3CCC(=O)NC3=O)C4=O)[nH]c12 (centres unmarked) [Embodiment 4, N-(5-(2-(2,6-dioxopiperidin-3-yl)-1-oxoisoindolin-4-yl)pentyl)-7-(2-(4-fluoro-2,6-dimethylphenoxy)-5-(2-hydroxyprop-2-yl)phenyl)-5-methyl-4-oxo-4,5-dihydro-1H-pyrrolo[3,2-c]pyridine-2-amide]		< 1.5 nM	
Cc1cc(F)cc(C)c1Oc1ccc(C(C)(C)O)cc1-c1cn(C)c(=O)c2cc(C(=O)NCCCCNC(=O)COc3cccc4c3C(=O)N(C3CCC(=O)NC3=O)C4=O)[nH]c12 (centres unmarked) [Embodiment 5, N-(4-(2-((2-(2,6-dioxopiperidin-3-yl)-1,3-dioxoisoindolin-4-yl)oxo)acetamido)butyl)-7-(2-(4-fluoro-2,6-dimethylphenoxy)-5-(2-hydroxyprop-2-yl)phenyl)-5-methyl-4-oxo-4,5-dihydro-1H-pyrrolo[3,2-c]pyridine-2-amide]		< 1.5 nM	
Cc1cc(F)cc(C)c1Oc1ccc(C(C)(C)O)cc1-c1cn(C)c(=O)c2cc(C(=O)NCCCOCCOCCOCCCNc3cccc4c3C(=O)N(C3CCC(=O)NC3=O)C4=O)[nH]c12 (centres unmarked) [Embodiment 6, N-(3-(2-(2-(3-((2-(2,6-dioxopiperidin-3-yl)-1,3-dioxoisoindolin-4-yl)amino)propoxy)ethoxy)ethoxy)propyl)-7-(2-(4-fluoro-2,6-dimethylphenoxy)-5-(2-hydroxyprop-2-yl)phenyl)-5-methyl-4-oxo-4,5-dihydro-1H-pyrrole[3,2-c]pyridine-2-amide]		10.2 nM	
CN1C(=O)C(C)(C)Oc2c(-c3cn(C)c(=O)c4cc(C(=O)NCCOCCOCCOCCC(=O)Nc5cccc6c5C(=O)N(C5CCC(=O)NC5=O)C6=O)[nH]c34)cc(S(C)(=O)=O)cc21 (centres unmarked) [Embodiment 7, N-(2-(2-(2-(3-((2-(2,6-dioxopiperidin-3-yl)-1,3-dioxoisoindolin-4-yl)amino)-3-oxo-n-propoxy)ethoxy)ethoxy)ethyl)-5-methyl-4-oxo-7-(2,2,4-trimethyl-6-(methylsulfonyl)-3-oxo-3,4-dihydro-2H-benzo[b] [1,4]oxazin-8-yl)-4,5-dihydro-1H-pyrrolo[3,2-c]pyridine-2-amide]		< 1.5 nM	
COCCNC(=O)c1cc2c(=O)n(C)cc(-c3cc(C(C)(C)O)ccc3Oc3c(C)cc(F)cc3C)c2[nH]1 [Embodiment 9, 7-(2-(4-fluoro-2,6-dimethylphenoxy)-5-(2-hydroxyprop-2-yl)phenyl)-N-(2-methoxyethyl)-5-methyl-4-oxo-4,5-dihydro-1H-pyrrolo[3,2-c]pyridine-2-amide]	0.51 nM	19.8 nM	37 nM
Cc1cc(F)cc(C)c1Oc1ccc(C(C)(C)O)cc1-c1cn(C)c(=O)c2cc(C(=O)NCCS(C)(=O)=O)[nH]c12 [Embodiment 10, 7-(2-(4-fluoro-2,6-dimethylphenoxy)-5-(2-hydroxyprop-2-yl)phenyl)-N-(2-methylsulfonyl)-4-oxo-4,5-dihydro-1H-pyrrolo pyridine-2-amide]	0.69 nM	19.8 nM	58 nM
Cc1cc(F)cc(C)c1Oc1ccc(C(C)(C)O)cc1-c1cn(C)c(=O)c2cc(C(=O)NCC3CC3)[nH]c12 [Embodiment 12, N-(cyclopropylmethyl)-7-(2-(4-fluoro-2,6-dimethylphenoxy)-5-(2-hydroxyprop-2-yl)phenyl)-5-methyl-4-oxo-4,5-dihydro-1H-pyrrolo[3,2-c]pyridine-2-amide]	< 0.5 nM	12.7 nM	50 nM
Cc1cc(F)cc(C)c1Oc1ccc(C(C)(C)O)cc1-c1cn(C)c(=O)c2cc(C(=O)NC(C)C)[nH]c12 [Embodiment 13, 7-(2-(4-fluoro-2,6-dimethylphenoxy)-5-(2-hydroxyprop-2-yl)phenyl)-N-isopropyl-5-methyl-4-oxo-4,5-dihydro-1H-pyrrolo[3,2-c]pyridine-2-amide]	< 0.5 nM	6.6 nM	79 nM
Cc1cc(F)cc(C)c1Oc1ccc(C(C)(C)O)cc1-c1cn(C)c(=O)c2cc(C(=O)NCC(F)(F)F)[nH]c12 [Embodiment 14, 7-(2-(4-fluoro-2,6-dimethylphenoxy)-5-(2-hydroxyprop-2-yl)phenyl)-5-methyl-4-oxo-N-(2,2,2-trifluoroethyl)-4,5-dihydro-1H-pyrrolo[3,2-c]pyridine-2-amide]	< 0.5 nM	31.3 nM	219 nM
Cc1cc(F)cc(C)c1Oc1ccc(C(C)(C)O)cc1-c1cn(C)c(=O)c2cc(C(=O)NCC#N)[nH]c12 [Embodiment 15, N-(cyanomethyl)-7-(2-(4-fluoro-2,6-dimethylphenoxy)-5-(2-hydroxyprop-2-yl)phenyl)-5-methyl-4-oxo-4,5-dihydro-1H-pyrrolo[3,2-c] pyridine-2-amide]	< 0.5 nM	33.3 nM	81 nM
Cc1cc(F)cc(C)c1Oc1ccc(C(C)(C)O)cc1-c1cn(C)c(=O)c2cc(C(=O)NC3CC3)[nH]c12 [Embodiment 16, N-cyclopropyl-7-(2-(4-fluoro-2,6-dimethylphenoxy)-5-(2-hydroxyprop-2-yl)phenyl)-5-methyl-4-oxo-4,5-dihydro-1H-pyrrolo[3,2-c]pyridine-2-amide]	< 0.5 nM	7.95 nM	93 nM
Cc1cc(F)cc(C)c1Oc1ccc(C(C)(C)O)cc1-c1cn(C)c(=O)c2cc(C(=O)N3CCC3)[nH]c12 [Embodiment 17, 2-(azetidine-1-carbonyl)-7-(2-(4-fluoro-2,6-dimethylphenoxy)-5-(2-hydroxyprop-2-yl)phenyl)-5-methyl-1,5-dihydro-4H-pyrrolo[3,2-c] pyridin-4-one]	7.4 nM	248 nM	233 nM
Cc1cc(F)cc(C)c1Oc1ccc(C(C)(C)O)cc1-c1cn(C)c(=O)c2cc(C(=O)N3CC(F)(F)C3)[nH]c12 [Embodiment 19, 2-(3,3-difluoroazetidine-1-carbonyl)-7-(2-(4-fluoro-2,6-dimethylphenoxy)-5-(2-hydroxyprop-2-yl)phenyl)-5-methyl-1,5-dihydro-4H-pyrrolo[3,2-c]pyridin-4-one]	2.8 nM	147 nM	292 nM
Cc1cc(F)cc(C)c1Oc1ccc(C(C)(C)O)cc1-c1cn(C)c(=O)c2cc(C(=O)NC(CF)CF)[nH]c12 [Embodiment 20, N-(1,3-difluoropropyl-2-yl)-7-(2-(4-fluoro-2,6-dimethylphenoxy)-5-(2-hydroxyprop-2-yl)phenyl)-5-methyl-4-oxo-4,5-dihydro-1H-pyrrolo[3,2-c]pyridine-2-amide]	< 0.51 nM	4.8 nM	98 nM
